US4588720A, “Imidazo[1,2-a]pyrimidines” (Roussel Uclaf, priority 1982, dated 1986)

Tests used:
benzodiazepine receptors = experiment: Affinity for benzodiazepine receptors ([3H] flunitrazepam radioreceptor binding); conditions: inhibition of specific binding of 0.6 nM [^3 H] flunitrazepam, rat forebrain membrane preparations; read-out: Receptor Binding (IC50 nM)
Experimental: A. Affinity for benzodiazepine receptors
The affinity of the compounds for benzodiazepine receptors was assessed using the radioligand [^3 H] flunitrazepam and modifications of the original radioreceptor binding method of Squares and Braestrup (Nature, Vol. 266 (1977) p. 732). The values given in Table VI are nanomolar concentrations of test compound which inhibited the specific binding of 0.6 nM[^3 H] flunitrazepam to rat forebrain membrain preparations by 50% (IC50 nM).

[1] = Anxiolytic activity, Geller conflict method (Geller and Seifter); format: in vivo; conditions: po; modified Geller and Seifter conflict method; read-out: Geller Conflict (MED mg/kg po), minimum effective dose at which there was an observed increase in shocks above control
Experimental: Screening for anxiolytic activity was carried out by modifications of the conflict method of Geller and Seifter (Psychopharmacologia, (1960), Volume I, p. 482). The values given in Table VI are the minimum effective doses at which there was an observed increase in shocks above control (MED me/kg po).

## COc1nc2nc(C(=O)c3ccccc3)cn2c2c1CCCC2 [Example 1, (5-methoxy-6,7,8.9-tetrahydroimidazo[1,2-a]quinazolin-2-yl)phenylmethanone]
Benzodiazepine receptors
  IC50: 61 nM
[1]
  minimal effective dose: 5 mg/kg

## COc1cc(C)n2cc(C(=O)c3ccccc3)nc2n1 [Example 3, (7-Methoxy-5-methylimidazol[1,2-a]pyrimidin-2-yl)-phenyl methanone]
Benzodiazepine receptors
  IC50: 800 nM
[1]
  minimal effective dose: 5 mg/kg

## COc1nc2nc(C(=O)c3ccccc3)cn2c2c1CCC2 [Example 4, (5-Methoxycyclopenta[e]imidazol[1,2-a]pyrimidin-2-yl)-phenylmethanone]
Benzodiazepine receptors
  IC50: 200 nM
[1]
  minimal effective dose: 20 mg/kg

## CSc1nc2nc(C(=O)c3ccccc3)cn2c2c1CCC2 [Example 6, [5-(Methylthio)cyclopenta[e]imidazo[1,2-a]pyrimidin-2-yl]phenylmethanone]
Benzodiazepine receptors
  IC50: 35 nM
[1]
  minimal effective dose: 2 mg/kg

## COc1nc2nc(C(=O)c3ccccc3)cn2c(C)c1C [Example 7, (7-Methoxy-5,6-dimethylimidazo[1,2-a]pyrimidin-2-yl)phenylmethanone]
Benzodiazepine receptors
  IC50: 235 nM
[1]
  minimal effective dose: 50 mg/kg

## COc1nc2nc(C(=O)c3ccccc3)cn2c2c1CCCCC2 [Example 8]
Benzodiazepine receptors
  IC50: 125 nM
[1]
  minimal effective dose: 10 mg/kg

## COc1nc2nc(C(=O)c3ccccc3)cn2c(C)c1Cc1ccccc1 [Example 9, (6-Benzyl-7-methoxy-5-methylimidazo[1,2-a]pyrimidin-2-yl)phenylmethanone]
Benzodiazepine receptors
  IC50: 45 nM
[1]
  minimal effective dose: 50 mg/kg

## CCOc1nc2nc(C(=O)c3ccccc3)cn2c2c1CCCCC2 [Example 10]
Benzodiazepine receptors
  IC50: 4000 nM
[1]
  minimal effective dose: 5 mg/kg

## COc1nc2nc(C(=O)c3ccccc3)cn2c(C)c1C(C)C [Example 11, (7-Methoxy-5-methyl-6-(1-methylethyl)imidazo[1,2-a]pyrimidin-2-yl)phenylmethanone]
Benzodiazepine receptors
  IC50: 37 nM
[1]
  minimal effective dose: 2 mg/kg

## CSc1nc2nc(C(=O)c3ccccc3)cn2c2c1CCCC2 [Example 12, [5-(Methylthio)-6,7,8,9-tetrahydroimidazo[1,2-a]quinazolin-2-yl]phenylmethanone]
Benzodiazepine receptors
  IC50: 8.5 nM
[1]
  minimal effective dose: 10 mg/kg

## CCSc1nc2nc(C(=O)c3ccccc3)cn2c2c1CCC2 [Example 13, [5-(Ethylthio)cyclopenta[e]imidazo[1,2-a]pyrimidin-2-yl]phenylmethanone]
Benzodiazepine receptors
  IC50: 1850 nM
[1]
  minimal effective dose: 50 mg/kg

## CCCc1cc(OC)nc2nc(C(=O)c3ccccc3)cn12 [Example 14, (7-Methoxy-5-propylimidazo[1,2-a]pyrimidin-2-yl)phenylmethanone]
Benzodiazepine receptors
  IC50: 535 nM
[1]
  minimal effective dose: 1 mg/kg

## CCc1cc(OC)nc2nc(C(=O)c3ccccc3)cn12 [Example 15, (5-Ethyl-7-methoxyimidazo[1,2-a]pyrimidin-2-yl)phenylmethanone]
Benzodiazepine receptors
  IC50: 295 nM
[1]
  minimal effective dose: 2 mg/kg

## CCc1c(OC)nc2nc(C(=O)c3ccccc3)cn2c1C [Example 16, (6-Ethyl-7-methoxy-5-methylimidazo[1,2-a]pyrimidin-2-yl)phenylmethanone]
Benzodiazepine receptors
  IC50: 56 nM
[1]
  minimal effective dose: 2 mg/kg

## COc1nc2nc(C(=O)c3ccccc3)cn2c2c1CCC(C)C2 (stereo not drawn) [Example 17, (5-Methoxy-8-methyl-6,7,8,9-tetrahydroimidazo[1,2-a]quinazolin-2-yl]phenylmethanone]
Benzodiazepine receptors
  IC50: 135 nM
[1]
  minimal effective dose: 10 mg/kg

## CSc1nc2nc(C(=O)c3ccccc3)cn2c2c1CCC(C)C2 (stereo not drawn) [Example 18, [8-Methyl-5-(methylthio)-6,7,8,9-tetrahydroimidazo[1,2-a]quinzolin-2-yl]phenylmethanone]
Benzodiazepine receptors
  IC50: 76 nM
[1]
  minimal effective dose: 50 mg/kg

## CCCCCCc1c(OC)nc2nc(C(=O)c3ccccc3)cn2c1C [Example 19, (6-n-Hexyl-7-methoxy-5-methylimidazo[1,2-a]pyrimidin-2-yl)phenylmethanone]
Benzodiazepine receptors
  IC50: 180 nM
[1]
  minimal effective dose: 20 mg/kg

## C=CCc1c(OC)nc2nc(C(=O)c3ccccc3)cn2c1C [Example 20, (6-Allyl-7-methoxy-5-methylimidazo[1,2-a]pyrimidin-2-yl)phenylmethanone]
Benzodiazepine receptors
  IC50: 45 nM
[1]
  minimal effective dose: 4 mg/kg

## CSc1cc(C)n2cc(C(=O)c3ccccc3)nc2n1 [Example 21, [5-Methyl-7-(methylthio)imidazo[1,2-a]pyrimidin-2-yl]phenylmethanone]
Benzodiazepine receptors
  IC50: 190 nM
[1]
  minimal effective dose: 50 mg/kg

## CCCc1cc(SC)nc2nc(C(=O)c3ccccc3)cn12 [Example 22, [7-(Methylthio)-5-propylimidazo[1,2-a]pyrimidin-2-yl]phenylmethanone]
Benzodiazepine receptors
  IC50: 89 nM
[1]
  minimal effective dose: 50 mg/kg

## COc1nc2nc(C(=O)c3ccccc3)cn2c(C)c1CC1CC1 [Example 23, [6-Cyclopropylmethyl-7-methoxy-5-methylimidazo[1,2-a]pyrimidin-2-yl]phenylmethanone]
Benzodiazepine receptors
  IC50: 30 nM
[1]
  minimal effective dose: 10 mg/kg

## COc1nc2nc(C(=O)c3ccccc3)cn2c(C)c1CC1CCCCC1 [Example 24, [6-Cyclohexylmethyl-7-methoxy-5-methylimidazo[1,2-a]pyrimidin-2-yl]phenylmethanone]
Benzodiazepine receptors
  IC50: 250 nM
[1]
  minimal effective dose: 50 mg/kg

## CCOc1nc2nc(C(=O)c3ccccc3)cn2c(C)c1CC [Example 25, [7-Ethoxy-6-ethyl-5-methylimidazo[1,2-a]pyrimidin-2-yl]phenylmethanone]
Benzodiazepine receptors
  IC50: 1900 nM
[1]
  minimal effective dose: 50 mg/kg

## CCCc1c(C)c(OC)nc2nc(C(=O)c3ccccc3)cn12 [Example 26, [7-Methoxy-6-methyl-5-propylimidazo[1,2-a]pyrimidin-2-yl]phenylmethanone]
Benzodiazepine receptors
  IC50: 740 nM
[1]
  minimal effective dose: 20 mg/kg

## CCCc1c(CC)c(OC)nc2nc(C(=O)c3ccccc3)cn12 [Example 27, [6-Ethyl-7-methoxy-5-n-propylimidazo[1,2-a]pyrimidin-2-yl]phenylmethanone]
Benzodiazepine receptors
  IC50: 470 nM
[1]
  minimal effective dose: 50 mg/kg

## COc1ccn2cc(C(=O)c3ccccc3)nc2n1 [Example 28, [7-Methoxyimidazo[1,2-a]pyrimidin-2-yl]phenylmethanone]
Benzodiazepine receptors
  IC50: 8500 nM
[1]
  minimal effective dose: 50 mg/kg

## CCc1c(C)c(OC)nc2nc(C(=O)c3ccccc3)cn12 [Example 29, [5-Ethyl-7-methoxy-6-methylimidazo[1,2-a]pyrimidin-2-yl]phenylmethanone]
Benzodiazepine receptors
  IC50: 1000 nM
[1]
  minimal effective dose: 20 mg/kg

## CCCCc1c(OC)nc2nc(C(=O)c3ccccc3)cn2c1C [Example 30, [6-n-Butyl-7-methoxy-5-methylimidazo[1,2-]pyrimidin-2-yl]phenylmethanone]
Benzodiazepine receptors
  IC50: 42 nM
[1]
  minimal effective dose: 2 mg/kg

## CCc1c(OC)nc2nc(C(=O)c3ccccc3)cn2c1CC [Example 31, [5,6-Diethyl-7-methoxyimidazo[1,2-a]pyrimidin-2-yl]phenylmethanone]
Benzodiazepine receptors
  IC50: 107 nM
[1]
  minimal effective dose: 2 mg/kg

## CCCc1c(OC)nc2nc(C(=O)c3ccccc3)cn2c1C [Example 32, [7-Methoxy-5-methyl-6-n-propylimidazo[1,2-a]pyrimidin-2-yl]phenylmethanone]
Benzodiazepine receptors
  IC50: 85 nM
[1]
  minimal effective dose: 5 mg/kg

## CCCc1c(OC)nc2nc(C(=O)c3ccccc3)cn2c1CCC [Example 33, [7-Methoxy-5,6-di-n-propylimidazo[1,2-a]pyrimidin-2-yl]phenylmethanone]
Benzodiazepine receptors
  IC50: 1250 nM
[1]
  minimal effective dose: 50 mg/kg

## CCCCc1c(OC)nc2nc(C(=O)c3ccccc3)cn2c1CCC [Example 34, [6-n-Butyl-7-methoxy-5-n-propylimidazo[1,2-a]pyrimidin-2-yl]phenylmethanone]
Benzodiazepine receptors
  IC50: 710 nM
[1]
  minimal effective dose: 50 mg/kg

## CCCc1c(OC)nc2nc(C(=O)c3ccccc3)cn2c1CC [Example 35, [5-Ethyl-7-methoxy-6-n-propylimidazo[1,2-a]pyrimidin-2-yl]phenylmethanone]
Benzodiazepine receptors
  IC50: 34 nM
[1]
  minimal effective dose: 10 mg/kg

## CCCCc1c(OC)nc2nc(C(=O)c3ccccc3)cn2c1CC [Example 36, [6-n-Butyl-5-ethyl-7-methoxy-imidazo[1,2-a]pyrimidin-2-yl]phenylmethanone]
Benzodiazepine receptors
  IC50: 34 nM
[1]
  minimal effective dose: 10 mg/kg

## CCc1c(SC)nc2nc(C(=O)c3ccccc3)cn2c1CC [Example 52, [5,6-Diethyl-7-(methylthio)imidazo[1,2-a]pyrimidin-2-yl]phenylmethanone]
Benzodiazepine receptors
  IC50: 12 nM

## CCCc1c(SC)nc2nc(C(=O)c3ccccc3)cn2c1CC [Example 53, [5-Ethyl-7-(methylthio)-6-n-propylimidazo[1,2-a]pyrimidin-2-yl]phenylmethanone]
Benzodiazepine receptors
  IC50: 47 nM

## CCc1c(OC)nc2nc(C(=O)c3cccs3)cn2c1C [Example 60, 6-ethyl 7-methoxy 5-methylimidazo/1,2-a/pyrimidin-2-yl(2-thienyl)methanone]
[1]
  minimal effective dose: 50 mg/kg

## CCc1c(OC)nc2nc(C(=O)c3ccccn3)cn2c1C [Example 61, (6-ethyl 7-methoxy 5-methylimidazo/1,2-a/pyrimidin-2-yl)(2-pyridinyl)methanone]
[1]
  minimal effective dose: 50 mg/kg

## CCc1c(OC)nc2nc(C(=O)c3ccc(F)cc3)cn2c1C [Example 62, (6-ethyl 7-methoxy 5-methylimidazo/1,2-a/pyrimidin-2-yl)(4-fluorophenyl)methanone]
[1]
  minimal effective dose: 10 mg/kg

## CCc1c(OC)nc2nc(C(=O)c3cccc(C(F)(F)F)c3)cn2c1C [Example 63, (6-ethyl 7-methoxy 5-methylimidazo/1,2-a/pyrimidin-2-yl)/(3-trifluoromethyl)phenyl/methanone]
[1]
  minimal effective dose: 50 mg/kg

## CCc1c(OC)nc2nc(C(C)=O)cn2c1C [Example 64, 1-(6-ethyl 7-methoxy 5-methylimidazo/1,2-a/pyrimidin-2-yl)ethanone]
[1]
  minimal effective dose: 50 mg/kg
